The record followed here is BindingDB's records for doi:10.7270/Q2K072NW (Sanford-Burnham Center for Chemical Genomics, 2008).

Where only a bound is given, the exact number is not on record here.

As usually defined, the IC50 is the concentration at which inhibition is half-maximal. The low end stands for greater potency, the high end for weaker potency.

The assay concerns the target T1, Bcl-2-related protein A1 (Mus musculus, UniProt Q07440).
T1 sequence (Q07440 whole entry): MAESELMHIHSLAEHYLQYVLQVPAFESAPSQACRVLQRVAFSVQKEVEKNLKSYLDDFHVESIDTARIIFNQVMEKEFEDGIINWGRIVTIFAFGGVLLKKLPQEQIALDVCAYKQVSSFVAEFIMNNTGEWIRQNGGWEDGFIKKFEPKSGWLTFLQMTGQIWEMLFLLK
As to the kind of experiment: small-molecule antagonists of Bfl-1/BH3 interaction – biochemical, TR-FRET, mouse Bfl-1, confirmation (AID 621). (TR-FRET usually uses a lanthanide donor and a delayed reading to cut background.)
`CN1CCC2=C(C#N)C(=N)C(C#N)(C#N)[C@H](c3cccc(Cl)c3)C2C1` (stereo partly drawn) [(8S)-6-amino-8-(3-chlorophenyl)-2-methyl-1,3,8,8a-tetrahydroisoquinoline-5,7,7-tricarbonitrile] gave a half-maximal inhibitory concentration (IC50) of over 100 µM.

`CN1CCC2=C(C#N)C(=N)C(C#N)(C#N)C(c3cccc(Cl)c3Cl)C2C1` (configuration not stated) [6-azanyl-8-[2,3-bis(chloranyl)phenyl]-2-methyl-1,3,8,8a-tetrahydroisoquinoline-5,7,7-tricarbonitrile] yielded an IC50 of over 100 µM.

`O=C1C(=Nc2ccc(F)cc2)C(Cl)C(=O)N1c1ccc(Cl)c(Cl)c1` (configuration not stated) [3-chloranyl-1-(3,4-dichlorophenyl)-4-[(4-fluorophenyl)amino]pyrrole-2,5-dione] had an IC50 of 96.5 µM.

Molecule `COCC=Nc1c(Cl)c(O)n(-c2ccc(Cl)c(Cl)c2)c1O` [3-chloranyl-1-(3,4-dichlorophenyl)-4-(2-methoxyethylamino)pyrrole-2,5-dione] showed an IC50 of 4.96 µM.

The molecule `CCCN1CCC2=C(C#N)C(=N)C(C#N)(C#N)C(c3cccc(OC)c3OC)C2C1` (configuration not stated) [6-amino-8-(2,3-dimethoxyphenyl)-2-propyl-1,3,8,8a-tetrahydroisoquinoline-5,7,7-tricarbonitrile] gave an IC50 of over 100 µM.

`Oc1c(Cl)c(N=Cc2ccccc2)c(O)n1-c1ccc(Cl)c(Cl)c1` [MLS-0067125.0001]: 73.7 µM corresponded to half-maximal inhibition (IC50).

`Cc1ccc(N=C2C(=O)N(c3ccc(C)cc3)C(=O)C2Cl)cc1` (configuration not stated) [3-chloranyl-1-(4-methylphenyl)-4-[(4-methylphenyl)amino]pyrrole-2,5-dione] displayed an IC50 of 2.54 µM.

In turn, `Cc1ccc(C2C3CN(C(C)C)CCC3=C(C#N)C(=N)C2(C#N)C#N)cc1` (configuration not stated) [SMR000034220] registered an IC50 of over 100 µM.

As for `OCCCc1nc2n(n1)C(c1cccs1)CC(c1ccccc1)=N2` (configuration not stated) [3-(5-phenyl-7-thiophen-2-yl-1,7-dihydro-[1,2,4]triazolo[1,5-a]pyrimidin-2-yl)-1-propanol], the IC50 is over 100 µM.

`COc1ccc(N2C(=O)C(=Nc3c(C)n(C)n(-c4ccccc4)c3=O)C(Cl)C2=O)cc1` (configuration not stated) [3-chloranyl-4-[(1,5-dimethyl-3-oxidanylidene-2-phenyl-pyrazol-4-yl)amino]-1-(4-methoxyphenyl)pyrrole-2,5-dione] displayed an IC50 of over 100 µM.

On to `O=C1C(=O)N(c2ncccn2)C(c2cccc(Cl)c2)C1C(=O)c1ccco1` (configuration not stated) [2-(3-chlorophenyl)-3-(furan-2-carbonyl)-4-hydroxy-1-pyrimidin-2-yl-2H-pyrrol-5-one], for which the IC50 was over 100 µM.

As to `c1ccc(-c2ccc(C3=Nc4ncnn4C(c4ccco4)C3)cc2)cc1` (configuration not stated), the concentration for half-maximal inhibition (IC50) is over 100 µM.
